Measured values from US20260049072A1, “HETEROCYCLIC COMPOUND FOR INDUCING DEGRADATION OF MUTANT KRAS PROTEIN” (Astellas Pharma Inc., priority 2022, published 2026).
Read-outs that look alike come from different tables or passages of the source.

How the values were obtained:
Format in all cases: cell-based
[1] = test system: MIA PaCa-2 cells; assay: Non-anchorage-dependent cell growth inhibition (spheroid 3D culture), MIA PaCa-2; details: Homo sapiens, MIA PaCa-2, 144 h, read-out: MIA PaCa-2 IC50
Protocol: (§1) Test Example 3: Evaluation of Non-Anchorage-Dependent Cell Growth Inhibitory Activity on Human KRAS G12V Mutant-Positive Pancreatic Cancer Line PA-TU-8902, Human KRAS G12D Mutant-Positive Pancreatic Cancer Line AsPC-1 or Human KRAS G12C Mutant-Positive Pancreatic Cancer Line MIA PaCa-2
(§2) The non-anchorage-dependent cell growth inhibitory activities of subject compounds were evaluated by spheroid 3D cell culture.
(§3) PA-TU-8902 cells, AsPC-1 cells or MIA PaCa-2 cells (RIKEN BRC, RCB2094) were seeded at 36 µL/well on a low-cell-adhesive round bottom 384-well plate (Prime Surface: from Sumitomo Bakelite) to give 5×10^2 cells per well. The PA-TU-8902 cells were under the same conditions as in Test Example 1-1, and the AsPC-1 cells were under the same conditions as in Test Example 1-2. For the MIA PaCa-2 cells, RPMI-1640 medium containing 10% fetal bovine serum was used in the presence of 5% CO2 at 37° C.
(§4) The next day, the subject compounds (6-9 points having final concentrations in the range of 3 μM to 0.3 nM) and DMSO, which was the solvent for the subject compounds, as a negative control were diluted 100-fold with a fresh medium and were each added at 4 μL per well. After culturing in the presence of 5% CO2 at 37° C. for six days, CellTiter-Glo 2.0 (from Promega) was added at 20 μL per well. After stirring with a plate mixer (from FINEPCR) at normal temperature for an hour, the luminescent signals were measured with ARVO X3 (from PerkinElmer).
(§5) With the signaling value in treatment with DMSO taken as 0% inhibition and with the signaling value in the medium alone without cells taken as 100% inhibition, the 50% inhibition values (IC50) were calculated by Sigmoid-Emax model nonlinear regression analysis.

[2] = test system: phosphorylation of ERK (Thr202/Tyr204); assay: ERK phosphorylation inhibitory activity, cell ELISA, PA-TU-8902; details: Homo sapiens, read-out: IC50 (ERK phosphorylation inhibition)
Protocol: Test Example 2: Evaluation of ERK Phosphorylation Inhibitory Activity on Human KRAS G12V Mutant-Positive Pancreatic Cancer Line PA-TU-8902
The ERK phosphorylation inhibitory activities of subject compounds were evaluated by measuring phosphorylation of the 202th threonine (Thr202) and the 204th tyrosine (Tyr204) of ERK located downstream of the KRAS signal by cell ELISA.
PA-TU-8902 cells were seeded at 36 µL/well on a 384-well plate (from Greiner bio-one) to give 5.0×10^3 cells per well. The cell culture conditions were the same conditions as in Test Example 1-1.
The next day, the subject compounds (9 points having final concentrations in the range of 3 μM to 0.3 nM), trametinib (MEK inhibitor) of a final concentration of 300 nM as a positive control and DMSO, which was the solvent for the subject compounds, as a negative control were diluted 100-fold with a fresh medium and were each added at 4 μL per well, followed by culturing for 24 hours. After culturing, a 30% glyoxal solution (40% glyoxal [from Nacalai Tesque] was diluted with PBS) was quickly added at 30 μL per well, and the plate was allowed to stand for an hour and 30 minutes at room temperature to thus immobilize the cells. Then, the plate was centrifuged (110×g, seven seconds, hereinafter centrifugation was performed under the same conditions unless otherwise specified) to remove the supernatant, and 0.1% Triton X-100-containing PBS was added at 20 μL per well. After allowing the plate to stand for 10 minutes at room temperature, the supernatant was removed by centrifugation, and the same operation was further repeated. Next, 0.5% SDS-containing PBS was added at 20 μL per well. The plate was allowed to stand at room temperature for 30 minutes and was then centrifuged to remove the supernatant. Subsequently, a blocking solution (Intercept Blocking Buffer) was added at 20 μL per well, and the plate was allowed to stand for an hour at room temperature. The supernatant was removed by centrifugation, and an ERK (Thr202/Tyr204) phosphorylation antibody (Phospho-p44/42 MAPK (Erk 1/2) (Thr202/Tyr204) (D13.14.4E) XP Rabbit mAb; from Cell Signaling Technology) diluted 2,500-fold with the blocking solution was added at 15 μL per well as a primary antibody. The plate was allowed to stand at 4° C. overnight.
The next day, the plate was centrifuged to remove the supernatant, and 0.05% Tween-20-containing PBS (from Thermo Scientific; 20×PBS Tween-20 was diluted 20-fold with ion exchange water and used) was added at 50 μL per well. The supernatant was removed by centrifugation to thus wash each well. The washing was performed three times in total. After washing, an anti-rabbit IgG antibody diluted 1,000-fold with the blocking solution was added at 15 μL per well as a secondary antibody, and the plate was allowed to stand for an hour at room temperature. The plate was centrifuged to remove the supernatant, and each well was washed three times with 0.05% Tween-20-containing PBS in the same manner as after the primary antibody reaction. Centrifugation after the third washing was performed at 171×g for 17 seconds. After removing the supernatant, the plate was dried as it was with air at room temperature for three hours or more, and the 800-nm fluorescent signals were measured with Aerius.
With the signaling value at the time of addition of DMSO taken as 0% inhibition and with the signaling value at the time of addition of 300 nM trametinib taken as 100% inhibition, the 50% inhibition values (IC50) were calculated by Sigmoid-Emax model nonlinear regression analysis.

[3] = test system: AsPC-1 cells; assay: Non-anchorage-dependent cell growth inhibition (spheroid 3D culture), AsPC-1; details: Homo sapiens, ASPC1, 144 h, read-out: AsPC-1 IC50
Protocol: as §1, §2, §3, §4, §5

[4] = KRAS G12C mutant-positive, 3D spheroid, six days, CellTiter-Glo 2.0
[5] = PaTu 8902, PA-TU-8902 cells, 24 hours, 100% = 300 nM trametinib
[6] = KRAS G12D mutant-positive, 3D spheroid, six days, CellTiter-Glo 2.0

Row | Structure (SMILES) | IC50 [1, 4] | IC50 [2, 5] | IC50 [3, 6] | IC50 [1] | IC50 ([2]; PaTu 8902, 24 h) | IC50 [3]
1 | CO[C@@H](C)COc1cc(OC2CN(C(=O)N3CC(CN(C)C)C3)C2)c2cc(C3CC3)c(-c3c(C)c(F)cc4[nH]ncc34)c(OCc3ccc(-c4cn([C@H](C(=O)N5C[C@H](O)C[C@H]5C(=O)N[C@@H](CO)c5ccc(-c6scnc6C)cc5)C(C)C)nn4)cc3)c2n1 (atropisomer, axis not shown; (M)) [Example 14, (4R)-1-[(2S)-2-(4-{4-[({(7M)-6-cyclopropyl-4-[(1-{3-[(dimethylamino)methyl]azetidine-1-carbonyl}azetidin-3-yl)oxy]-7-(6-fluoro-5-methyl-1H-indazol-4-yl)-2-[(2S)-2-methoxypropoxy]quinolin-8-yl}oxy)methyl]phenyl}-1H-1,2,3-triazol-1-yl)-3-methylbutanoyl]-4-hydroxy-N-{(1R)-2-hydroxy-1-[4-(4-methyl-1,3-thiazol-5-yl)phenyl]ethyl}-L-prolinamide] | 10 nM | 10 nM | 19 nM |  |  | 
2 | Cc1ncsc1-c1ccc([C@H](CO)NC(=O)[C@@H]2C[C@@H](O)CN2C(=O)[C@H](C(C)C)n2cc(-c3ccc(COc4c(-c5c(C)c(F)cc6[nH]ncc56)c(C5CC5)cc5c(NC6CN(c7ncccn7)C6)nc(OC6CCOCC6)nc45)cc3)nn2)cc1 [Example 15, (4R)-1-[(2S)-2-{4-[4-({[(7M)-6-cyclopropyl-7-(6-fluoro-5-methyl-1H-indazol-4-yl)-2-[(oxan-4-yl)oxy]-4-{[1-(pyrimidin-2-yl)azetidin-3-yl]amino}quinazolin-8-yl]oxy}methyl)phenyl]-1H-1,2,3-triazol-1-yl}-3-methylbutanoyl]-4-hydroxy-N-{(1R)-2-hydroxy-1-[4-(4-methyl-1,3-thiazol-5-yl)phenyl]ethyl}-L-prolinamide] | 6 nM | 42 nM | 126 nM |  |  | 
3 | CO[C@@H](C)COc1nc(OC2CN(C(=O)NCCN(C)C)C2)c2cc(C3CC3)c(-c3c(C)c(F)cc4[nH]ncc34)c(OCc3ccc(C(=O)N[C@H](C(=O)N4C[C@H](O)C[C@H]4C(=O)N[C@@H](CO)c4ccc(-c5scnc5C)cc4)C(C)C)cc3)c2n1 [Example 40, N-{4-[({(7M)-6-cyclopropyl-4-[(1-{[2-(dimethylamino)ethyl]carbamoyl}azetidin-3-yl)oxy]-7-(6-fluoro-5-methyl-1H-indazol-4-yl)-2-[(2S)-2-methoxypropoxy]quinazolin-8-yl}oxy)methyl]benzoyl}-L-valyl-(4R)-4-hydroxy-N-{(1R)-2-hydroxy-1-[4-(4-methyl-1,3-thiazol-5-yl)phenyl]ethyl}-L-prolinamide] |  |  |  | 20 nM | 53 nM | 62 nM

Further lines, with some results ahead:

Row | IC50 [1, 4] | IC50 [2, 5] | IC50 [3, 6] | Structure (SMILES) | IC50 [1] | IC50 ([2]; PaTu 8902, 24 h) | IC50 [3]
4 | 23 nM | 24 nM | 29 nM | CO[C@@H](C)COc1cc(OC2CN(C(=O)CCCN(C)C)C2)c2cc(C3CC3)c(-c3c(C)c(F)cc4[nH]ncc34)c(OCc3ccc(-c4cn([C@H](C(=O)N5C[C@H](O)C[C@H]5C(=O)N[C@@H](CO)c5ccc(-n6cncn6)cc5)C(C)C)nn4)cc3)c2n1 (atropisomer, axis not shown; (M)) [Example 41, (4R)-1-[(2S)-2-(4-{4-[({(7M)-6-cyclopropyl-4-({1-[4-(dimethylamino)butanoyl]azetidin-3-yl}oxy)-7-(6-fluoro-5-methyl-1H-indazol-4-yl)-2-[(2S)-2-methoxypropoxy]quinolin-8-yl}oxy)methyl]phenyl}-1H-1,2,3-triazol-1-yl)-3-methylbutanoyl]-4-hydroxy-N-{(1R)-2-hydroxy-1-[4-(1H-1,2,4-triazol-1-yl)phenyl]ethyl}-L-prolinamide] |  |  | 
5 | 5 nM | 15 nM | 25 nM | Cc1ncsc1-c1ccc([C@H](CO)NC(=O)[C@@H]2C[C@@H](O)CN2C(=O)[C@H](C(C)C)n2cc(-c3ccc(COc4c(-c5c(C)c(F)cc6[nH]ncc56)c(C5CC5)cc5c(NCc6cccnc6)nc(OC6CCOCC6)nc45)cc3)nn2)cc1 [Example 29] |  |  | 
6 | 5 nM | 11 nM | 10 nM | Cc1ncsc1-c1ccc([C@H](CO)NC(=O)[C@@H]2C[C@@H](O)CN2C(=O)[C@H](C(C)C)n2cc(-c3ccc(COc4c(-c5c(C)c(F)cc6[nH]ncc56)c(C5CC5)cc5c(N6CC[C@H]6C(N)=O)nc(OC6CCOCC6)nc45)cc3)nn2)cc1 [Example 35] |  |  | 
